The results in this text go back to ChEMBL document CHEMBL5209585, “FFN206 based assay for SLC18A2 using HEK-293 SLC18A2 OE cells” (2022).

SMILES strings stand for the structures.

In the assay the target is Synaptic vesicular amine transporter (Homo sapiens, UniProt Q05940). As to the kind of experiment: Substrate uptake and inhibition of the Vesicular Amine Transporter 2 (VMAT2, SLC18A2) as assessed by uptake of a fluorescent substrate (FFN206) in HEK-293 JumpIN-SLC18A2 cells (PubChem AID: 1794817). The assay is classed as functional, cell-based, HEK293.

By IC50 is commonly meant the concentration that inhibits the measured activity by half. A low value points to inhibition by little substance. By EC50 is commonly meant the concentration at which the effect is half-maximal. A lower EC50 goes with higher potency in that assay.

Chain of Synaptic vesicular amine transporter (Q05940 whole entry): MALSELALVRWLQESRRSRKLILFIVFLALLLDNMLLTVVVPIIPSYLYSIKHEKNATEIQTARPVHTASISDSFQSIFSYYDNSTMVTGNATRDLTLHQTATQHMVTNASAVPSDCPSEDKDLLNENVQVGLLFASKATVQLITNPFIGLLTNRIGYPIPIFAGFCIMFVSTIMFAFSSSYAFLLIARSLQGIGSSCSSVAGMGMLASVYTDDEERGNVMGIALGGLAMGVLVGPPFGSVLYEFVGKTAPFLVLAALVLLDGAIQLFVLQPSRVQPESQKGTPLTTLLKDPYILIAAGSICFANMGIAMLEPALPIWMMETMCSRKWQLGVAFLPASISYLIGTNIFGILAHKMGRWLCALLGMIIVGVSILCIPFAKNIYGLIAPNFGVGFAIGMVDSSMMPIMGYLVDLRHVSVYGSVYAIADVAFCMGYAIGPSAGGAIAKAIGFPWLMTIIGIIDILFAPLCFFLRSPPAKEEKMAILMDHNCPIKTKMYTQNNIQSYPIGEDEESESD

On to `COc1cc2c(cc1OC)C1CC(=O)C(CC(C)C)CN1CC2` (configuration not stated) [TETRABENAZINE], for which the IC50 was 19.8 nM. `CNc1ccc2c(CCN)cc(=O)oc2c1` yielded an EC50 of 3560 nM.
